One assay relates to OCI-AML3 (N-RasQ61L). Briefly: Proliferation inhibitory activity, OCI-AML3 cell line. In kind it is cell-based. To be noted: Homo sapiens, OCI-AML-3; OCI-AML3 (mt-NRAS) cell line; read-out: Proliferation inhibitory ability (GI50, μM) OCI-AML3 (N-RasQ61L). On the procedure: (§1) With respect to each of the compounds synthesized in Synthesis Examples, GI50 values were calculated by measuring proliferation inhibitory abilities for mt-NRAS (G12D) Ba/F3, U937 (wt-NRAS), and OCI-AML3 (mt-NRAS) cell lines.

For another assay, the system named is U937 (N-Ras WT). Nature of the assay: Proliferation inhibitory activity, U937 cell line. The class given is cell-based. To be noted: Homo sapiens, U-937; U937 (wt-NRAS) cell line; read-out: Proliferation inhibitory ability (GI50, μM) U937 (N-Ras WT). On the procedure: as §1
The subject of another assay is Ba/F3 (N-Ras G12D). Briefly: Proliferation inhibitory activity, mt-NRAS (G12D) Ba/F3 cell line. In kind it is cell-based. The conditions noted are these: Mus musculus, BaF3, read-out: Proliferation inhibitory ability (GI50, μM) Ba/F3 (N-Ras G12D). The procedure: as §1
In another assay the target is T1, GCK (Homo sapiens, UniProt Q12851).
T1 sequence (Q12851 1-820): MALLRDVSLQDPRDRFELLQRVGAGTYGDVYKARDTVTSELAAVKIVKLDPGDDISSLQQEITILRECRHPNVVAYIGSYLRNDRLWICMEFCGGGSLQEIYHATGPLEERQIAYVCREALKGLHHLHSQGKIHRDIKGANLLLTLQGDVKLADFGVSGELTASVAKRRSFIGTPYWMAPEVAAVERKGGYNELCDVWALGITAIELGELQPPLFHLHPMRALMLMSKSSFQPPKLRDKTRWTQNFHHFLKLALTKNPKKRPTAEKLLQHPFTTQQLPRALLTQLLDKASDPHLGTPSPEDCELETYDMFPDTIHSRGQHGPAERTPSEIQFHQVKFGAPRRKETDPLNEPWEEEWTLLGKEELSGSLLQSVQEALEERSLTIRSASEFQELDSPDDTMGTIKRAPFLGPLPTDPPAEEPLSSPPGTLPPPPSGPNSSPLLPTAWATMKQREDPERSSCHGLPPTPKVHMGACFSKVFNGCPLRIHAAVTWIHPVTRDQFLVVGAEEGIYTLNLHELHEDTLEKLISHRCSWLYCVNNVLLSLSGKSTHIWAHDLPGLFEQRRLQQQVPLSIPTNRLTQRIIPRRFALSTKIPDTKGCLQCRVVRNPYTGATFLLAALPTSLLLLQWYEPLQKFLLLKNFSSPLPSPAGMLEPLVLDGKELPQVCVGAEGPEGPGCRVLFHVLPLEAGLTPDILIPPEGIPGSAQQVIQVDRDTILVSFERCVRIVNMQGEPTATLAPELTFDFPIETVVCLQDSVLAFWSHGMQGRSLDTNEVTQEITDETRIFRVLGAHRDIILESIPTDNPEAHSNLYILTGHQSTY
Nature of the assay: Kinase inhibitory activity, GCK. In kind it is biochemical. The procedure:
(§2) With respect to the compounds of the present invention, IC50 values were calculated by measuring inhibitory ability for two kinases of GCK and ACK1.

The next assay has as its target ACK1 (Homo sapiens, UniProt Q07912). Briefly: Kinase inhibitory activity, ACK1. In kind it is biochemical. On the procedure:
as §2

The structures appear in SMILES notation.

The term IC50 denotes the concentration needed to halve the response being measured. Lower therefore signals greater potency in that assay.

ACK1, sequence (Q07912 whole entry): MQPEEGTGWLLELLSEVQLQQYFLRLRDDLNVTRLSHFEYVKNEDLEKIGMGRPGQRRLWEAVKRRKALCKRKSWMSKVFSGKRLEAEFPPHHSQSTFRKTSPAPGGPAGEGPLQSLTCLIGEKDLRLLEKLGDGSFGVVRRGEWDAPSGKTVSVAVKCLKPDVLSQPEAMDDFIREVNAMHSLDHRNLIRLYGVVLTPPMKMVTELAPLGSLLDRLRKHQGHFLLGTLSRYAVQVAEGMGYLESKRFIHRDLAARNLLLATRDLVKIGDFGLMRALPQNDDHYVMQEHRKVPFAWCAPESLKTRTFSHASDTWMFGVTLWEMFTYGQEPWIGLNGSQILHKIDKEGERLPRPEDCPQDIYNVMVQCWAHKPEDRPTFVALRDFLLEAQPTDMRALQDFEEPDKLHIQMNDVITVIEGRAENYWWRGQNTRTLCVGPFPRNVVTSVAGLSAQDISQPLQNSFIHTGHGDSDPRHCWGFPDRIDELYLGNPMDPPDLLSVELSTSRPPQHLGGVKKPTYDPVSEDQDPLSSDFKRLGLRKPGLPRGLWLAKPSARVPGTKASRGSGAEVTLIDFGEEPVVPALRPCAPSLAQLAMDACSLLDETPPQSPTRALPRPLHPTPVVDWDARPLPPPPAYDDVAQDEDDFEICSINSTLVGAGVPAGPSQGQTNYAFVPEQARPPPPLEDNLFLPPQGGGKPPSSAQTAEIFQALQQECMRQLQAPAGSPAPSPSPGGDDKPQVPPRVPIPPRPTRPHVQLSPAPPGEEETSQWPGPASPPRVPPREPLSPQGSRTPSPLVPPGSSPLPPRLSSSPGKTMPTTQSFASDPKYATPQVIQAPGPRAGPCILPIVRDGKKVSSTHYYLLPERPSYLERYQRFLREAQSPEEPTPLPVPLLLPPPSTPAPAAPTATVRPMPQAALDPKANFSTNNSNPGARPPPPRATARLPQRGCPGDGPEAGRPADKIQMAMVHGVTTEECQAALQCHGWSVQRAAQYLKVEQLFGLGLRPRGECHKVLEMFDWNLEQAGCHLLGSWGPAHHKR

Consider `CCN1CCN(c2ccc(Nc3ncc4c(n3)N(C)C(=O)N(c3cc(NC(=O)c5cccc(C(F)(F)F)c5)ccc3C)C4)cn2)CC1` [Compound 1, N-(3-(7-((6-(4-ethylpiperazin-1-yl)pyridin-3-yl)amino)-1-methyl-2-oxo-1,4-dihydropyrimido[4,5-d]pyrimidin-3-(2H)-yl)-4-methylphenyl)-3-(trifluoromethyl)benzamide], for which the results for the GI50 in the assay on OCI-AML3 (N-RasQ61L), in the assay on U937 (N-Ras WT) and in the assay with Ba/F3 (N-Ras G12D) were under 0.2 µM, 1.2 to 2 µM and under 0.2 µM, respectively. Moreover, the IC50 at GCK and at ACK1 was under 30 nM in each case.

As for `CCN1CCN(c2cccc(Nc3ncc4c(n3)N(C)C(=O)N(c3cc(NC(=O)c5cccc(C(F)(F)F)c5)ccc3C)C4)c2)CC1` [Compound 2, N-(3-(7-((3-(4-ethylpiperazin-1-yl)phenyl)amino)-1-methyl-2-oxo-1,4-dihydropyrimido[4,5-d]pyrimidin-3-(2H)-yl)-4-methylphenyl)-3-(trifluoromethyl)benzamide], the GI50 in the assay with OCI-AML3 (N-RasQ61L), in the assay on U937 (N-Ras WT) and with Ba/F3 (N-Ras G12D) was under 0.2 µM in each case. Further, the figures for the concentration for half-maximal inhibition (IC50) against GCK and at ACK1 were under 30 nM and 45 to 100 nM, respectively.

As to `Cc1ccc(NC(=O)c2cccc(C(F)(F)F)c2)cc1N1Cc2cnc(Nc3cnn(C)c3)nc2N(C)C1=O` [Compound 3], the GI50 in the assay with OCI-AML3 (N-RasQ61L) was 0.2 to 0.7 µM; with U937 (N-Ras WT), 0.7 to 1.2 µM; with Ba/F3 (N-Ras G12D), under 0.2 µM. For the same molecule, the IC50 against GCK and at ACK1 was under 30 nM throughout.

In the case of `Cc1ccc(NC(=O)c2cccc(C(F)(F)F)c2)cc1N1Cc2cnc(Nc3ccccc3)nc2N(C)C1=O` [Compound 4, N-(4-methyl-3-(1-methyl-2-oxo-7-(phenylamino)-1,4-dihydropyrimido[4,5-d]pyrimidin-3(2H)-yl)phenyl)-3-(trifluoromethyl)benzamide], the GI50 with OCI-AML3 (N-RasQ61L) was 0.2 to 0.7 µM; in the assay with U937 (N-Ras WT), at least 2 µM; in the assay with Ba/F3 (N-Ras G12D) it was 0.2 to 0.7 µM. Also, the IC50 lay within 45 to 100 nM against GCK and 30 to 45 nM at ACK1.

As to `Cc1ccc(NC(=O)c2cccc(C(F)(F)F)c2)cc1N1Cc2cnc(NC3CCCCC3)nc2N(C)C1=O` [Compound 5, N-(3-(7-(cyclohexylamino)-1-methyl-2-oxo-1,4-dihydropyrimido[4,5-d]pyrimidin-3(2H)-yl)-4-methylphenyl)-3-(trifluoromethyl)benzamide], the GI50 was at least 2 µM in the assay with OCI-AML3 (N-RasQ61L), at least 2 µM in the assay with U937 (N-Ras WT) and 0.2 to 0.7 µM in the assay on Ba/F3 (N-Ras G12D). The IC50 against GCK is at least 300 nM; on ACK1, 45 to 100 nM.

For the molecule `Cc1ccc(NC(=O)c2cccc(C(F)(F)F)c2)cc1N1Cc2cnc(NCCO)nc2N(C)C1=O` [Compound 6, N-(3-(7-((2-hydroxylethyl)amino)-1-methyl-2-oxo-1,4-dihydropyrimido[4,5-d]pyrimidin-3(2H)-yl)-4-methylphenyl)-3-(trifluoromethyl)benzamide], the GI50 in the assay on OCI-AML3 (N-RasQ61L) is 0.7 to 1.2 µM; with U937 (N-Ras WT) it was at least 2 µM; in the assay with Ba/F3 (N-Ras G12D), at least 2 µM. Further, the results for the IC50 at GCK and on ACK1 were 30 to 45 nM and under 30 nM, respectively.

In the case of `Cc1ccc(NC(=O)c2cccc(C(F)(F)F)c2)cc1N1Cc2cnc(NC3CC3)nc2N(C)C1=O` [Compound 7, N-(3-(7-(cyclopropylamino)-1-methyl-2-oxo-1,4-dihydropyrimido[4,5-d]pyrimidin-3(2H)-yl)-4-methylphenyl)-3-(trifluoromethyl)benzamide], the GI50 in the assay with OCI-AML3 (N-RasQ61L) was 0.2 to 0.7 µM; with U937 (N-Ras WT) it was at least 2 µM; in the assay on Ba/F3 (N-Ras G12D) it was 0.2 to 0.7 µM. For the same molecule, the IC50 against GCK and on ACK1 was 30 to 45 nM each time.

These data come from patent US10155767B2, “Therapeutic agent of acute myeloid leukemia containing 1,3,7-trisubstituted 3,4-dihydropyrimido[4,5-D]pyrimidine-2(1H)-one derivatives” (KOREA INSTITUTE OF SCIENCE AND TECHNOLOGY, priority 2016, dated 2018).
